Assay results: US20080096894A1, “Anti-Bacterial Compounds” (ASTON UNIVERSITY, priority 2005, published 2008)
≈ marks a conversion by molar mass, not a printed value.

Legend:
Experiment in all cases: MIC, agar dilution, multipoint inoculator
MRSA = type: cell-based, methicillin-resistant Staphylococcus aureus; details: for MRSA MIC range: panel of ten MRSA strains (clinical isolates); for MIC: upper value of MIC reading, in µg/mL
Procedure: (§1) This activity was measured using a multipoint inoculator method as follows. The MIC for each compound was measured using an agar dilution method (Onda, H., et al., Int. J. Antimicrob. Agents. 18, 263 (2001)) (Mueller Hinton agar) by means of a multipoint inoculator delivering 10^4 colony forming units per spot.
‘Staph’ refers to the reference strain of S. aureus (NCTC 6571). A tick in the MRSA column refers to a positive zone against MRSA strain 96-7474, and the MIC range (in μg/ml) which follows is that found against a panel of ten MRSA strains. Where MIC values are given for MRSA, these are stated as a range of values, as testing was carried out on a panel of clinical isolates.

S. aureus = type: cell-based, Staphylococcus aureus; details: upper value of MIC reading
Procedure: as §1

S. epidemisis = type: cell-based, Staphylococcus epidermidis; details: upper value of MIC reading
Procedure: as §1

E. faecalis = type: cell-based; details: upper value of MIC reading
Procedure: as §1

S. haemolyticus = type: cell-based; details: S. haemolyticus Isolate 1; upper value of MIC reading
Procedure: as §1

E. faecium = type: cell-based, Enterococcus faecium; details: upper value of MIC reading
Procedure: as §1

| Structure (SMILES) | MRSA MIC range (MRSA) [µg/mL] | MIC (S. aureus; S. aureus NCTC 6571) [µg/mL] | MIC (MRSA; MRSA Isolate 2) | MIC (MRSA; MRSA Isolate 3) | MIC (MRSA; MRSA Isolate 4) | MIC (S. aureus; S. aureus Cowan 1) [µg/mL] | MIC (S. aureus; S. aureus NCTC 10788) [µg/mL] | MIC (MRSA; MRSA Isolate 1) | MIC (MRSA; MRSA Isolate 5) | MIC (MRSA; MRSA Isolate 6) | MIC (MRSA; MRSA Isolate 7) | MIC (MRSA; MRSA Isolate 8) | MIC (MRSA; MRSA Isolate 9) | further results |
| --- | --- | --- | --- | --- | --- | --- | --- | --- | --- | --- | --- | --- | --- | --- |
| Cc1cccc(C=NN=C(N)c2ccccn2)c1 [Compound 2PYaj] | 128 to 256 | – | – | – | – | – | – | – | – | – | – | – | – | – |
| CC(C)(C)[Si](C)(C)Oc1ccccc1/C=N/N=C(\N)c1cnccn1 [PZeg] | > 256 | – | – | – | – | – | – | – | – | – | – | – | – | – |
| NC(=NN=Cc1cccc(Cl)c1)c1ccccn1 [Compound 2PYdg] | 64 to 128 | – | – | – | – | – | – | – | – | – | – | – | – | – |
| NC(=NN=Cc1cc(Br)cc([N+](=O)[O-])c1O)c1ccc2ccccc2n1 [QNcl] | – | > 256 | 64 | 64 | 64 | – | – | – | – | – | – | – | – | MIC (S. epidemisis; S. epidemisis NCTC 11047): 256 µg/mL (≈ 618 µM); MIC (E. faecalis; E. faecalis Isolate 2): 256 µg/mL (≈ 618 µM); MIC (E. faecalis; E. faecalis Isolate 3): 256 µg/mL (≈ 618 µM); MIC (S. haemolyticus): 256 µg/mL (≈ 618 µM) |
| CC(C)(C)c1cc(C=NN=C(N)c2ccncc2)cc(C(C)(C)C)c1O [Compound 4PYcr] | > 256 | > 256 | – | >256 | – | – | – | – | – | – | – | – | – | – |
| NC(=NN=Cc1cc(Br)cc([N+](=O)[O-])c1O)c1ccccn1 [Compound 2PYcl] | – | 32 (≈ 87.9 µM) | 64 | 64 | 32 | 64 (≈ 176 µM) | 32 (≈ 87.9 µM) | 64 | 32 | 64 | 64 | 64 | 64 | MIC (MRSA; MRSA Isolate 10): 64; MIC (E. faecium; E. faecium ACTCC 10541): 128 µg/mL (≈ 351 µM); MIC (E. faecium; E. faecium NCTC 7171): 256 µg/mL (≈ 703 µM); MIC (E. faecalis; E. faecalis EBH1): 256 µg/mL (≈ 703 µM); MIC (E. faecalis; E. faecalis NCTC 5957): 256 µg/mL (≈ 703 µM) |
| CCc1ccccc1C=NN=C(N)c1ccccn1 [Compound 2PYai] | 128 to 256 | – | – | – | – | – | – | – | – | – | – | – | – | – |
| O=Cc1cc(Br)cc([N+](=O)[O-])c1O [cl] | – | 16 (≈ 65 µM) | 16 | 32 | 16 | 32 (≈ 130 µM) | 16 (≈ 65 µM) | 16 | 16 | 32 | 32 | 32 | 32 | – |
| NC(=NN=Cc1cc(I)cc(I)c1O)c1ccncc1 [Compound 4PYco] | 10 to 20 | – | – | – | – | – | – | – | – | – | – | – | – | – |
| NC(=NN=Cc1cc([N+](=O)[O-])ccc1O)c1cnccn1 [PZcj] | 4 to 16 | 16 (≈ 55.9 µM) | 8 | 4 | 4 | 256 (≈ 894 µM) | 16 (≈ 55.9 µM) | 8 | 16 | 16 | 16 | 16 | 16 | MIC (MRSA; MRSA Isolate 10): 16; MIC (S. epidemisis; S. epidemisis Isolate 1): 256 µg/mL (≈ 894 µM); MIC (E. faecalis; E. faecalis Isolate 3): 256 µg/mL (≈ 894 µM) |
| NC(=NN=Cc1cc([N+](=O)[O-])ccc1O)c1ccccn1 [Compound 2PYcj] | 4 to 32 | 16 (≈ 56.1 µM) | 16 | 4 | 8 | 32 (≈ 112 µM) | 16 (≈ 56.1 µM) | 16 | 16 | 16 | 8 | 4-8 | 8 | MIC (MRSA; MRSA Isolate 10): 8; MIC (S. epidemisis; S. epidemisis Isolate 1): 256 µg/mL (≈ 897 µM); MIC (S. epidemisis; S. epidemisis NCTC 11047): 256 µg/mL (≈ 897 µM); MIC (E. faecalis; E. faecalis Isolate 3): 256 µg/mL (≈ 897 µM); MIC (E. faecalis; E. faecalis Isolate 5): 256 µg/mL (≈ 897 µM); MIC (S. haemolyticus): 256 µg/mL (≈ 897 µM) |
| NC(=NN=Cc1c(O)ccc2ccccc12)c1ccccn1 [Compound 2PYdb] | > 256 | > 256 | – | >256 | – | – | – | – | – | – | – | – | – | – |
